Patent US7759397B2, “6-amino(aza)indane compounds suitable for treating disorders that respond to modulation of the dopamine D3 receptor” (Abbott GmbH & Co. KG, priority 2004, dated 2010)

Columns and labels:
[1] = biological target: T1, human dopamine D3 receptors (Homo sapiens, UniProt P35462); test: Dopamine D3 receptor binding, displacement of [125I]-iodosulpride; conditions: ratio of receptor binding constants D2 over D3
T1 construct: expressed in transfected cells
Description: (§1) The substance to be tested was either dissolved in methanol/Chremophor® (BASF-AG) or in dimethyl sulfoxide and then diluted with water to the desired concentration.
(§2) Each assay mixture was run in triplicate.
The incubation buffer contained 50 mM tris, 120 mM NaCl, 5 mM KCl, 2 mM CaCl2, 2 mM MgCl2 and 0.1% bovine serum albumin, 10 μM […] and 0.1% ascorbic acid (prepared fresh daily). The buffer was adjusted to pH 7.4 with HCl. Dopamine D2L receptor:
(§3) After having been incubated at 25° C. for 60 minutes, the assay mixtures were filtered through a Whatman GF/B glass fiber filter under vacuum using a cell collecting device. The filters were transferred to scintillation viols using a filter transfer system. After 4 ml of Ultima Gold® (Packard) have been added, the samples were shaken for one hour and the radioactivity was then counted in a Beta-Counter (Packard, Tricarb 2000 or 2200CA). The cpm values were converted into dpm using a standard quench series and the program belonging to the instrument.
(§4) The inhibition curves were analyzed by means of iterative nonlinear regression analysis using the Statistical Analysis System (SAS) which is similar to the “LIGAND” program described by Munson and Rodbard.

[2] = biological target: T1, human dopamine D3 receptors; test: as above; conditions: membranes of HEK-293 cells stably expressing human D3; 0.1 nM [125I]-iodosulpride; 25° C., 60 minutes; read-out: Ki(D3)* receptor binding constant
[3] = biological target: T2, human dopamine D2L receptors (long isoform) (Homo sapiens, UniProt P14416); test: Dopamine D2L receptor binding, displacement of [125I] iodospiperone; conditions: membranes of HEK-293 cells stably expressing human D2L; 0.01 nM [125I] iodospiperone; 25° C., 60 minutes; read-out: Ki(D2)* receptor binding constant
T2 construct: expressed in transfected cells
Description: as §1, §2
The incubation buffer contained 50 mM tris, 120 mM NaCl, 5 mM KCl, 2 mM CaCl2, 2 mM MgCl2 and 0.1% bovine serum albumin. The buffer was adjusted to pH 7.4 with HCl.
as §3, §4

T2 sequence (P14416 whole entry, canonical isoform): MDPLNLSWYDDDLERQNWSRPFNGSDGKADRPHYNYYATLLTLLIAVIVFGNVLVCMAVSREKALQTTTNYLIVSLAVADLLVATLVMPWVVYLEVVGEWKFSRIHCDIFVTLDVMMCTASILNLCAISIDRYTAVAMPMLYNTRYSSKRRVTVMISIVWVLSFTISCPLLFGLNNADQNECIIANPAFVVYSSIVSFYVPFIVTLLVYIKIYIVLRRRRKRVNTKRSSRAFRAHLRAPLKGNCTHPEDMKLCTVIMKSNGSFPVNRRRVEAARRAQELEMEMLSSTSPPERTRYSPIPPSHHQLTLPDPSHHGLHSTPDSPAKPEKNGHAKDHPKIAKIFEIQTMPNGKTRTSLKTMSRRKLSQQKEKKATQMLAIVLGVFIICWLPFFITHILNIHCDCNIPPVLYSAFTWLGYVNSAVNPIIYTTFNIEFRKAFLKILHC
T1 sequence (P35462 whole entry): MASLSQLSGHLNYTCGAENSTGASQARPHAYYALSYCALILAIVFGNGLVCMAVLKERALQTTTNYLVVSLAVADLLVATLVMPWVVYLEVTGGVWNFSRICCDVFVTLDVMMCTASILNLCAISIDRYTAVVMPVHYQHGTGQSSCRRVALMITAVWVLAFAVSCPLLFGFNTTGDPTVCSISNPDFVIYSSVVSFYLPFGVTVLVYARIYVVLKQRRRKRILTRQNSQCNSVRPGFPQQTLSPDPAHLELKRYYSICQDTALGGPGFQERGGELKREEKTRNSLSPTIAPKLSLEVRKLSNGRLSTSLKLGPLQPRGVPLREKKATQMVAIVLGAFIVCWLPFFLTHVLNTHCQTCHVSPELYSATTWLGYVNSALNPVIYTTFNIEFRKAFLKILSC

Ki(D2)*/Ki(D3)* selectivity ratio [1] | Ki [2] [nM] | Ki [3] [nM] | Structure (SMILES)
17 | 1.6 |  | CCCN1CCC[C@H]2c3cc(NS(=O)(=O)c4ccc(C(C)C)cc4)ccc3C[C@@H]21 [4 (SS)-isomer]
22 | 7 | 157 | CCCN[C@H]1Cc2ccc(N(C)S(=O)(=O)c3ccc(C(C)C)cc3)cc2C1 [Example 3, 4-isopropyl-N-methyl-N—((S)-2-propylamino-indan-5-yl)-benzenesulfonamide]
134 | 9.4 |  | CCCN1CCC[C@@H]2c3cc(NS(=O)(=O)c4ccc(C(C)C)cc4)ccc3C[C@H]21 [4 (RR)-isomer]
64 | 4 | 257 | CCCN[C@@H]1Cc2ccc(NS(=O)(=O)c3ccc(C(C)C)cc3)cc2C1 [Example 1, 4-Isopropyl-N—((R)-2-propylamino-indan-5-yl)-benzenesulfonamide]
20 | 6.7 | 132 | CCCN[C@H]1Cc2ccc(NS(=O)(=O)c3ccc(C(C)C)cc3)cc2C1.Cl [Example 2, 4-Isopropyl-N—((S)-2-propylamino-indan-5-yl)-benzenesulfonamide hydrochloride]
195 | 0.26 | 51 | CCCN(CCC)[C@@H]1Cc2ccc(NS(=O)(=O)c3ccc(C(C)C)cc3)cc2C1.Cl [Example 7, N—((R)-2-Dipropylamino-indan-5-yl)-4-isopropyl-benzenesulfonamide hydrochloride]
